Peptide text beside a SMILES is read from it. * marks the point of attachment. Cbz = O=C(OCc1ccccc1)*
Assays:
[1] = system: primary human fibroblasts; format: cell-based; settings: confluent primary human fibroblasts treated prior to rAAV infection; FACS at 96 hours post-infection
Method: Initial studies were performed in confluent primary human fibroblasts since dose titrations and toxicity could be quickly assessed. Selected agents were used to treat fibroblast monolayers prior to rAAV infection. rAAV transduction was assessed at 96 hours post-infection by FACS analysis, and the percentage of dead cells was simultaneously assessed by incorporation of propidium iodide.
These tripeptides are structurally related to chloroquine but have different lipid solubility and specificity for cysteine proteases (Seglen, 1983). These molecules decrease endosomal degradation of molecules by a mechanism different than altering pH.

HeLa cells = assay: AAV2 FLAG-Luc transduction of HeLa cells (luciferase screen); format: cell-based, human; settings: for concentration at which transduction was enhanced: HeLa cells
Source text: (§1) A. To screen for agents that enhance rAAV transduction, any number of cells can be used. A range of concentrations of the agent to be tested can be determined based on, for instance desirable profiles of the agent, desirable toxicity profiles of the agent and/or concentration of the agents employed in vivo. The usefulness of the cell type chosen for the screen can be confirmed by testing compounds, e.g., proteasome inhibitors such as LLnL and ZLL which are known to increase rAAV transduction. For example, a AAV2 FLAG-Luc vector was employed to transduce HeLa, ferret fibroblasts, IB3 and Huh (liver) cells in the presence or absence of the proteasome inhibitor MG132. MG132 was confirmed to enhance AAV transduction in all cell types tested: HeLa cell transduction was enhanced about 500-fold at 80 μM, and 200-fold at 40 μM, MG132; ferret fibroblast cell transduction was enhanced about 200-fold at 20 μM, and 17-fold at 4 μM, MG132; IB3-1 cell transduction was enhanced about 30 to 70-fold at 20 to 80 μM MG132; and Huh-7 cell transduction was enhanced about 15-fold at 20 to 80 μM MG132. There was no difference in rAAV transduction efficiency in HeLa cells when either DMSO or ETOH was used as a vehicle for MG132. B. HeLa cells were selected to screen for additional agents that enhance rAAV transduction, although any cell strain or line; or primary cells, may be employed. […] The range of concentrations of the agents to be tested were selected based on solubility profiles, toxicity profiles and/or concentrations previously employed in vivo.
HeLa cells were infected for 2 hours with an MOI of 100 rAAV in the presence of agents, e.g., ritonavir (Norvir) (1, 10 and 100 μM), cyclosporin A (2.5, 25 and 250 μg/ml), epoxomicin (1, 10 and 50 μM), alcacinomycin A (5, 50 or 500 μM), chymostatin (1, 10 and 100 μM), bestatin (1, 10 and 100 μM), doxorubicin (adriamycin) (0.1, 1 and 10 μM), camptothecin (camptosar) (1, 10 and 100 μM), eicosapentanoic acid (1, 10 and 100 μM), tannic acid (2, 20, 200 and 2000 μM), simvastatin, prodrug (2, 20 and 200 μM), cisplatin (0.2, 2 and 20 μg/mL), and chloroquine (4, 40 and 400 μM). Forty-eight hours after infection, cells were harvested for analysis. rAAV transduction was measured by removing the media from the cell cultures, adding 100 μL reporter lysis buffer (RLB) and freezing. The supernatant was thawed and transferred to microfuge tubes, freeze thawed an additional 2 times, clarified by centrifugation for 10 minutes and then analyzed for reporter gene expression on the lumometer. Protein was determined by Bradford analysis and results were expressed as relative light units per mg protein (RLU/mg).
Based on results with doxorubicin, a small number of FDA approved anthracyclines were tested for their relative in vitro and in vivo activities on AAV transduction. HeLa cells were infected with 100 ppc AAV2FLAG-Luc for 2 hours in the presence of different anthracyclines, e.g., doxorubicin, daunarubicin (Cerubidine), epirubicin (Ellence™), and idarubicin (Idamycin®), and cells harvested 48 hours later. The anthracyclines were pharmaceutical grade, and prepared according to the manufacturer's instructions. Prior to use, the agents were diluted in sterile water to an equal mass, e.g., 0.6 μg/mL, 3 μg/mL and 6 μg/mL. For example, 3 μg/mL idamycin increased luciferase expression by over 5000-fold while doxorubin increased luciferase expression by 58-fold. Generally, the potency was as follows: idarubicin>daunarubicin>epirubicin>doxorubicin.

ferret fibroblasts = assay: rAAV transduction of ferret fibroblasts; format: cell-based; settings: for concentration at which transduction was enhanced: ferret fibroblast cells
Source text: as §1
(§2) C. To determine whether combinations of agents that enhance rAAV transduction efficiency have synergistic or additive effects when used in combination, cells were contacted with the proteasome modulator, doxorubicin, and the proteasome inhibitor Z-LLL or LLnL. Different AAV vectors were tested, including splicing vectors and pseudotyped rAAV. Viral stocks utilized were as follows: Av2RSVluc, 5×10^8 particle/μl; Av2RSVlucCap5 (also referred to as Av2/5 CMVLuc), 2×10^9 particle/μl; Av2CMVluc, 1.3×10^9 particle/μl; and Av2CMVlucCap5, 1.1×109 particle/μl. Combinations of agents were compared to the agents used alone to determine the efficiency of transduction. LLnL was used at 40, 200 or 400 μM, Z-LLL at 4 μM and doxorubicin at 0.5 or 1 μM when employed alone. When a combination of LLnL and doxorubicin was used, LLnL was used at 4, 10, 20, 40, 200 or 400 μM and doxorubicin at 1 or 5 μM. The apical surface of polarized airway epithelia, HeLa cells or ferret fibroblast was contacted with the agents and rAAV (5×10^9 particles per well).

[2] = system: polarized airway epithelia; assay: Apical rAAV (AAV2 and AAV5 capsid) infection of polarized airway epithelia with agent combinations; format: cell-based, human; settings: for concentration at which transduction was enhanced: polarized airway epithelial cells
Method: as §2

[3] = system: primary fetal fibroblasts; assay: rAAV transduction of primary fetal fibroblasts; format: cell-based; settings: data not shown
Method: Hela, A549, IB3, and primary fetal fibroblasts were evaluated for AV2Luc and AV2/5Luc transduction in the presence of LLnL, Dox, or LLnL+Dox at various concentrations. The data shown is from Hela and A549 cells at the most optimal dose combination that induces rAV2Luc transduction to a greater extent than each compound alone.

| Compound | rAAV transduction [1] | concentration at which transduction was enhanced (HeLa cells) [µM] | concentration at which transduction was enhanced (ferret fibroblasts) [µM] | concentration at which transduction was enhanced [2] [µM] | induction of transduction [3] | result in cell line screening (HeLa cells) | increase in luciferase expression (HeLa cells; 3 μg/mL, 100 ppc AAV2FLAG-Luc, harvest 48 hours) [fold] | order of potency among anthracyclines (HeLa cells; 0.6, 3 and 6 μg/mL) | dose dependence of transduction (HeLa cells; dose ranges tested) | enhancement of transduction (ferret fibroblasts; ferret fibroblasts infected with lacZ splicing vectors) | induction of AAV2 and AAV5 apical infection of polarized cells ([2]; in the presence of doxorubicin) [fold] | enhancement of HeLa cell transduction (HeLa cells; 40 μM) | enhancement of HeLa cell transduction (HeLa cells; 80 μM) | enhancement of ferret fibroblast cell transduction (ferret fibroblasts; 4 μM) [fold] | enhancement of ferret fibroblast cell transduction (ferret fibroblasts; 20 μM) |
| --- | --- | --- | --- | --- | --- | --- | --- | --- | --- | --- | --- | --- | --- | --- | --- |
| N-acetyl-L-leucinyl-L-leucinal-L-norleucinal [LLnL] | significantly increased rAAV transduction | 40 | 40 | 40 | 10 fold |  |  |  |  |  |  |  |  |  |  |
| COc1cccc2c1C(=O)c1c(O)c3c(c(O)c1C2=O)C[C@@](O)(C(=O)CO)C[C@@H]3O[C@H]1C[C@H](N)[C@H](O)[C@H](C)O1 [doxorubicin] |  | 1 | 1 | 5 | most significantly enhances transduction | tested positive | 58 | idarubicin>daunarubicin>epirubicin>doxorubicin | dose-dependent increase in transduction | about 100 fold | 200 to 600 |  |  |  |  |
| CC(C)C[C@@H](C=O)NC(=O)[C@H](CC(C)C)NC(=O)[C@H](CC(C)C)NC(=O)OCc1ccccc1 [Z-LLL, N-carbobenzoxyl-L-leucinyl-L-leucinyl-L-leucinal] (Cbz-Leu-Leu-Leu-aldehyde) | significantly increased rAAV transduction |  |  |  |  |  |  |  |  |  |  | about 200 fold | about 500 fold | ~17 | about 200 fold |

From patent US20080206198A1, “Compounds and methods for pharmico-gene therapy of epithelial sodium channel associated disorders” (priority 2003, published 2008)
